Experimental findings from the kinase profiling compilation of Christmann-Franck et al. (2016) are described below.

Test in all cases: Caliper, Mobility shift assay off-chip
One experiment concerns MAP2K4 (mouse). Particulars: compound 10.0 µM; accession and sequence are those of the human protein.
Experiment [1] deals with BTK (human), Q06187 [R28H].
Another experiment deals with CLK2 (human) (UniProt P49760).
The subject of experiment [2] is RET (human), P07949 [V804L].
The next experiment has as its target TEC (human) (UniProt P42680). The note with it: compound 10.0 µM.
Experiment [3] deals with ABL1 (human), P00519 [H396P].
The target of the next experiment is MTOR FKBP1A (human) (UniProt P42345+P62942).
A further experiment deals with PLK1 (human) (UniProt P53350).
The next experiment addresses GRK7 (human) (UniProt Q8WTQ7).
The test system of the next experiment is PHKG1 (rabbit). The note with it: compound 10.0 µM; accession and sequence are those of the human protein.
A further experiment concerns DYRK1A (rat). Particulars: compound 10.0 µM; accession and sequence are those of the human protein.
Another experiment deals with PAK1 (human) (UniProt Q13153). Particulars: compound 10.0 µM.
Another experiment has as its target ERBB2 (human) (UniProt P04626). The note with it: compound 10.0 µM.
The target of the next experiment is CSNK2A1 (human) (UniProt P68400). Particulars: compound 10.0 µM.
In a further experiment the target is AURKC (human) (UniProt Q9UQB9). The note with it: compound 10.0 µM.
Another experiment deals with PBK (human) (UniProt Q96KB5). The note with it: compound 10.0 µM.
A further experiment concerns the target NTRK3 (human) (UniProt Q16288). The note with it: compound 10.0 µM.
Another experiment addresses CDC7 (human) (UniProt O00311). Particulars: compound 10.0 µM.
The next experiment deals with PRKAA1 (human) (UniProt Q13131). Particulars: compound 10.0 µM.
Experiment [4] concerns RPS6KB1 (human), P23443 [T412E]. Particulars: compound 10.0 µM.
The target of a further experiment is PRKDC (human) (UniProt P78527). Particulars: compound 10.0 µM.
In the next experiment the target is MARK4 (human) (UniProt Q96L34). Particulars: compound 10.0 µM.
Another experiment has as its target MAP3K14 (human) (UniProt Q99558). The note with it: compound 10.0 µM.
For the next experiment, the system named is MAP2K1 (rabbit). The note with it: compound 10.0 µM; accession and sequence are those of the human protein.
Another experiment has as its target BRAF (human) (UniProt P15056). The note with it: compound 10.0 µM.
The next experiment deals with CSNK1A1 (rat). The note with it: compound 10.0 µM; accession and sequence are those of the human protein.
The next experiment concerns the target MAP3K8 (human) (UniProt P41279). The note with it: compound 10.0 µM.
Another experiment has as its target CDK4 (human) (UniProt P11802). The note with it: compound 10.0 µM.
In a further experiment the target is SGK1 (human) (UniProt O00141). The note with it: compound 10.0 µM.
For a further experiment, the target named is MAPK3 (human) (UniProt P27361). The note with it: compound 1.0 µM.
The next experiment has as its target CSNK1A1 (human) (UniProt P48729). The note with it: compound 1.0 µM.
The test system of another experiment is ABL2 (mouse). The note with it: compound 1.0 µM; accession and sequence are those of the human protein.
The next experiment has as its target PIK3CG (human) (UniProt P48736). Particulars: compound 1.0 µM.
In a further experiment the target is PIK3CB (human) (UniProt P42338). The note with it: compound 1.0 µM.
The test system of the next experiment is LYN (mouse). The note with it: compound 1.0 µM; accession and sequence are those of the human protein.
For the next experiment, the target named is PIK3CD (human) (UniProt O00329). Particulars: compound 1.0 µM.
In the next experiment the target is MYLK (human) (UniProt Q15746). Particulars: compound 1.0 µM.
The next experiment deals with ABL1 (mouse). Particulars: compound 1.0 µM; accession and sequence are those of the human protein.
The target of another experiment is CSNK1A1 (yeast) (UniProt P48729). The note with it: compound 1.0 µM; accession and sequence are those of the human protein.

The term residual activity denotes the signal under treatment as a percentage of the control signal.

MTOR FKBP1A (human), sequence (P62942 whole entry, looked up, other chains not shown): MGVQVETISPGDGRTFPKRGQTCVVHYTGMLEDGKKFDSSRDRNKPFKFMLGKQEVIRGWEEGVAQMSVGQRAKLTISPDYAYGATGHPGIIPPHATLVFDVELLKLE
CLK2 (human), sequence (P49760 whole entry, looked up): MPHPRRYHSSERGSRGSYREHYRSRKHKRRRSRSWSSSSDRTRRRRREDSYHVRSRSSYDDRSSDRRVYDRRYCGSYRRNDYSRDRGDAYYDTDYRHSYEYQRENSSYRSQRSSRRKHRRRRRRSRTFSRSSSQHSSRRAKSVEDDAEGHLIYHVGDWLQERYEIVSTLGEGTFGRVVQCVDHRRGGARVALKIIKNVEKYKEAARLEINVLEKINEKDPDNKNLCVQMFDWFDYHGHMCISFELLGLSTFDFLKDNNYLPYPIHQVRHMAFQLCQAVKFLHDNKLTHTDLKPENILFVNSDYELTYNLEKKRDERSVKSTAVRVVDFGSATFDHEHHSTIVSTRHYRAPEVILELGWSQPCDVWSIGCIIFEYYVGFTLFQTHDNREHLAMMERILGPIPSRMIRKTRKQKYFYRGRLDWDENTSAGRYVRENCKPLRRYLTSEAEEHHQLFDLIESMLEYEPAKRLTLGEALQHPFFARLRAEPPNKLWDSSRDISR
GRK7 (human), sequence (Q8WTQ7 whole entry, looked up): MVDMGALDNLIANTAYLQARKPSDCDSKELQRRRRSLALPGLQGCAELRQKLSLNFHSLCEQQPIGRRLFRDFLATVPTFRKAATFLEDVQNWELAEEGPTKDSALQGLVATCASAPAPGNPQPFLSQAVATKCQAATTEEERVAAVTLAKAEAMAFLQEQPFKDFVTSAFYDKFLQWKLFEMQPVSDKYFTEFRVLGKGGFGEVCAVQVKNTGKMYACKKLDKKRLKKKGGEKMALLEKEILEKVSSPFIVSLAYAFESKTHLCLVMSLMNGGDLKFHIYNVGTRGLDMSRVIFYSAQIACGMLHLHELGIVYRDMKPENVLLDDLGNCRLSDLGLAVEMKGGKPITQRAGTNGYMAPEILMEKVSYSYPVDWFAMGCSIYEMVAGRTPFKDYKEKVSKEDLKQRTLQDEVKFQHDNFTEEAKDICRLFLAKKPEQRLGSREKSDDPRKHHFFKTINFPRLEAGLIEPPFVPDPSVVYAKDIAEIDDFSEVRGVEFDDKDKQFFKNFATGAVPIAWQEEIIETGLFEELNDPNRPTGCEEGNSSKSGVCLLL
RET (human), P07949 [V804L], sequence (P07949 whole entry V804L, looked up): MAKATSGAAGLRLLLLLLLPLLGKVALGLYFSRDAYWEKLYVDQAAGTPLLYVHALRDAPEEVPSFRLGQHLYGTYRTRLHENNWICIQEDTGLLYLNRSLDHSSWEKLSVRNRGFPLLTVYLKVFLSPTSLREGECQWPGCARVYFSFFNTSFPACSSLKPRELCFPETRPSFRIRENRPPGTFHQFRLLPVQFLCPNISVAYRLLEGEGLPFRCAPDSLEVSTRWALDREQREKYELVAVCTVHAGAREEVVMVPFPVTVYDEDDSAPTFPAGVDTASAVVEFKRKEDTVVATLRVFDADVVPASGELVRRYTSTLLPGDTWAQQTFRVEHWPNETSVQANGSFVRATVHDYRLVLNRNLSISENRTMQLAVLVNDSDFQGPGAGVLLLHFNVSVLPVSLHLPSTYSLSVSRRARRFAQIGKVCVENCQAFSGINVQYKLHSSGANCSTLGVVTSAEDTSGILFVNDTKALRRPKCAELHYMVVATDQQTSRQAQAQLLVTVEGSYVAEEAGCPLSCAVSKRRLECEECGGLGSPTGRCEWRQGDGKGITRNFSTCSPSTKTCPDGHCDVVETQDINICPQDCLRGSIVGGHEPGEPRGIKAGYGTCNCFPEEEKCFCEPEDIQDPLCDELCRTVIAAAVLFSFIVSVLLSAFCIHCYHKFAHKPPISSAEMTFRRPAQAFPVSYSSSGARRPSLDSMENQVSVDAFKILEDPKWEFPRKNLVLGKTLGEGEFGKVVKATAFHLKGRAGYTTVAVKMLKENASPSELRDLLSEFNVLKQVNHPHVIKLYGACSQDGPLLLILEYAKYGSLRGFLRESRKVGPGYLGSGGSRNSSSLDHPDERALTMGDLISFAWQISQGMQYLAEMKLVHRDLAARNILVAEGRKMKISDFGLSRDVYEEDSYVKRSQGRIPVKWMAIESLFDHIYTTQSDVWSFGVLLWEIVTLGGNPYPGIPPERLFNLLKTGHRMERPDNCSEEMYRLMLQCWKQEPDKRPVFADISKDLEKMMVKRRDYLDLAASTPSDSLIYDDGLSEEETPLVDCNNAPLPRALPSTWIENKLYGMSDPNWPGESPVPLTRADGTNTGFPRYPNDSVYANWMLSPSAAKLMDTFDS
PLK1 (human), sequence (P53350 whole entry, looked up): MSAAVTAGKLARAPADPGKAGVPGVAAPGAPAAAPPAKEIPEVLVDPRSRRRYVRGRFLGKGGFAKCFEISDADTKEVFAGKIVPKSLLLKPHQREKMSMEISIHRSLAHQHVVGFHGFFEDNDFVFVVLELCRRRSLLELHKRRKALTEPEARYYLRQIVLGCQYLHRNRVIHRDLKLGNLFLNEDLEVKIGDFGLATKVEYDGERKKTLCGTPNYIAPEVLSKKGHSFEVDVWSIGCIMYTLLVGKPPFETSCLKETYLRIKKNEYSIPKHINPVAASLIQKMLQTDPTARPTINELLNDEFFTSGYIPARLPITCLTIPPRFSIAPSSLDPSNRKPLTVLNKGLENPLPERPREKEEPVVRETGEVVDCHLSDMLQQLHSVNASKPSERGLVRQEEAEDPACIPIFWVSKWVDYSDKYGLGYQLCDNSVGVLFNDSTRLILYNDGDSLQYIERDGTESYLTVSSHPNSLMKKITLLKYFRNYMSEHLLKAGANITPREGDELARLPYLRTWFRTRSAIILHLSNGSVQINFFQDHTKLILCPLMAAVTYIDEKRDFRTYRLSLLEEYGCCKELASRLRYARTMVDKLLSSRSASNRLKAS
BTK (human), Q06187 [R28H], sequence (Q06187 whole entry R28H, looked up): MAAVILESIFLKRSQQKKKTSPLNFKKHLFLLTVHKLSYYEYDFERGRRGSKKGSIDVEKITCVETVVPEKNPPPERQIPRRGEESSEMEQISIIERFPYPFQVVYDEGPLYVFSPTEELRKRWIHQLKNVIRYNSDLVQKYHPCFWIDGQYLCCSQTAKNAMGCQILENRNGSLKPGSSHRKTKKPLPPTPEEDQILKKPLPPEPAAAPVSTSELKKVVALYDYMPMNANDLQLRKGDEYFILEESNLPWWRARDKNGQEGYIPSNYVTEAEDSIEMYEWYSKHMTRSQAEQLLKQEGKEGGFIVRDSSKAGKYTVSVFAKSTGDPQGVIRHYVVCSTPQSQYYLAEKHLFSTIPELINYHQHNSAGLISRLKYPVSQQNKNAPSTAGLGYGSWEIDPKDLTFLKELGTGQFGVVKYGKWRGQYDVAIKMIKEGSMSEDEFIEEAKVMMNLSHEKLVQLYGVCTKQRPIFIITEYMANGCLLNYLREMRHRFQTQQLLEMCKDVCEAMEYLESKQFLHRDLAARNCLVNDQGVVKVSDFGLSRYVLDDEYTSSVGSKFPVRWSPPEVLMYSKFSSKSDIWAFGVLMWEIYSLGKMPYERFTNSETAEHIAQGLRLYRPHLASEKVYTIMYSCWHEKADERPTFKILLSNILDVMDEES
BRAF (human), sequence (P15056 whole entry, looked up): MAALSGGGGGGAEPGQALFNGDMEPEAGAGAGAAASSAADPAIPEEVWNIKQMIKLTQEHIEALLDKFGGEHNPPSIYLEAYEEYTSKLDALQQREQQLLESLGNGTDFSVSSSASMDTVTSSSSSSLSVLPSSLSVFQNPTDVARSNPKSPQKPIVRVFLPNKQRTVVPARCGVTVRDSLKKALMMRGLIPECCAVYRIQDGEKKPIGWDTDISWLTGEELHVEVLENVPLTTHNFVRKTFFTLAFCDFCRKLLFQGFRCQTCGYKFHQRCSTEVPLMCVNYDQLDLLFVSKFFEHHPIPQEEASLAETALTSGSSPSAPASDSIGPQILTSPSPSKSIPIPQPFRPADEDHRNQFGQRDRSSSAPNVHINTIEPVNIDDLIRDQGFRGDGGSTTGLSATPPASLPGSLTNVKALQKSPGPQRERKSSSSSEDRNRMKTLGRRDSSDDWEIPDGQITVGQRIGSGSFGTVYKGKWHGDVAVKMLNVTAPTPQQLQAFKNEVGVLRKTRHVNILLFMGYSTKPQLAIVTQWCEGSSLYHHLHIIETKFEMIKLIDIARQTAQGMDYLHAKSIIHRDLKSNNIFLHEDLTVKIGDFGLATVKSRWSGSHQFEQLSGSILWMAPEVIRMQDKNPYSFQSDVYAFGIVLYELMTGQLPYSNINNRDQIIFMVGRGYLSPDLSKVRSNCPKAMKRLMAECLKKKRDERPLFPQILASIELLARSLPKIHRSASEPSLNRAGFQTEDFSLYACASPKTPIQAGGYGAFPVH
RPS6KB1 (human), P23443 [T412E], sequence (P23443 whole entry T412E, looked up): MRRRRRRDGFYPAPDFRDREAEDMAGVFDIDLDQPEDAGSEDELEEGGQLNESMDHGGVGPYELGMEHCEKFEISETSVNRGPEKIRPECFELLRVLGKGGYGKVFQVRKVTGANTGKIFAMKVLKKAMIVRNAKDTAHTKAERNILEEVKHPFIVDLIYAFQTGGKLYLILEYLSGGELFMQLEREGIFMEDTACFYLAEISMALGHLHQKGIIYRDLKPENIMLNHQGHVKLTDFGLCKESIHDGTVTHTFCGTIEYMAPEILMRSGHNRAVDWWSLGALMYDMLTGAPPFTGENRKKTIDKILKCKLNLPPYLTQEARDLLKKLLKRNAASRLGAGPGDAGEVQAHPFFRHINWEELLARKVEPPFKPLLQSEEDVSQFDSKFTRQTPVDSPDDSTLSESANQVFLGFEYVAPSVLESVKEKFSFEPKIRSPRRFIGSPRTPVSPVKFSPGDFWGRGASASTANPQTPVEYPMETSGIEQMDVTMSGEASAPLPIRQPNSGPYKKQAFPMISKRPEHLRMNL

With `O=C(N[C@@H](COc1ccc2[nH]c(=O)[nH]c2c1)c1ccccc1)c1cccn(Cc2ccc(F)c(F)c2)c1=O`, the residual activity with MAP2K4 (mouse) amounted to 112%; in [1] (compound 10.0 µM), 106%; on CLK2 (human) (compound 10.0 µM), 100%; in experiment [2] (compound 10.0 µM), 112%; on TEC (human) it was 91%; in [3] (compound 10.0 µM), 114%. In addition, the values for the residual activity at MTOR FKBP1A (human) (compound 10.0 µM), at PLK1 (human) (compound 10.0 µM) and on GRK7 (human) (compound 10.0 µM) were 103%, 116% and 108%, respectively.

Turning to `C[C@@H](Nc1nc2c(C#CC3CC3)c[nH]c(=O)c2c2cc(-c3cn[nH]c3)ccc12)C(C)(C)C`, the residual activity in [1] (compound 1.0 µM) was 100%; on CLK2 (human) (compound 1.0 µM) it was 67%; in experiment [2] (compound 1.0 µM), 2%; in [3] (compound 1.0 µM) it was 49%; on MTOR FKBP1A (human) (compound 1.0 µM) it was 94%; on PLK1 (human) (compound 1.0 µM) it was 81%. The residual activity on GRK7 (human) (compound 1.0 µM) was 90%.

On to `CC(C)(C)c1nc2c3ccc(F)cc3c3c(=O)[nH]ccc3c2[nH]1`, for which the residual activity with PHKG1 (rabbit) turned out to be 6%; in the experiment on DYRK1A (rat), 64%; at PAK1 (human) it was 73%; at ERBB2 (human) it was 130%; on CSNK2A1 (human) it was 71%; on AURKC (human), 4%. Besides, the residual activity on PBK (human) is 10%; at NTRK3 (human), 2%; on CDC7 (human) it was 70%; on PRKAA1 (human), 5%; in [4], 11%; on PRKDC (human) it was 97%. The residual activity came out at 25% on MARK4 (human); 92% on MAP3K14 (human); 30% in the experiment on MAP2K1 (rabbit); 114% on BRAF (human); 59% with CSNK1A1 (rat); 87% at MAP3K8 (human). The figures for the residual activity on CDK4 (human) and at SGK1 (human) were 21% and 3%, respectively.

Turning to `Cc1n[nH]c2c1c(=O)n(CCCN)c1ccc(Cl)cc21`, the residual activity on MAPK3 (human) amounted to 89%; at CSNK1A1 (human), 111%; in the experiment with ABL2 (mouse), 110%; on PIK3CG (human), 116%; on PIK3CB (human) it was 100%; in the experiment with LYN (mouse), 69%. For the same molecule, the residual activity at PIK3CD (human) is 95%; on MYLK (human), 68%; in the experiment on ABL1 (mouse) it was 98%; on CSNK1A1 (yeast), 69%.
